Source: PubChem BioAssay AID1259407 (Chemical Carcinogenesis Research Information System (CCRIS), 2018)
Active and inactive are the calls of the source. No rule for the calls is given here.

Test system: CCRIS mutagenicity, Ames/micronucleus/aberration tests
Assay: CCRIS mutagenicity studies
Conditions: Test System: AMES SALMONELLA TYPHIMURIUM

## Nc1ccc2cc3ccccc3cc2c1
Strain/Indicator: NM2000, Metabolic Activation: RAT, LIVER, S-9, AROCLOR 1254, Method: PREINCUBATION
  mutagenic call: active; positive
Strain/Indicator: NM2009, Metabolic Activation: RAT, LIVER, S-9, AROCLOR 1254, Method: PREINCUBATION
  mutagenic call: active; positive
Strain/Indicator: TA97, Metabolic Activation: NONE, Method: STANDARD PLATE
  mutagenic call: inactive; negative
Strain/Indicator: TA97, Metabolic Activation: RAT, LIVER, S-9, AROCLOR 1254, Method: STANDARD PLATE
  mutagenic call: active; positive
Strain/Indicator: TA97A, Metabolic Activation: RAT, LIVER, S-9, AROCLOR 1254, Method: STANDARD PLATE
  mutagenic call: active; positive
Strain/Indicator: TA98 (1,8-DNP6), Metabolic Activation: RAT LIVER, CYTOSOL, AROCLOR 1254, Method: STANDARD PLATE
  mutagenic call: active; positive
Strain/Indicator: TA98 (1,8-DNP6), Metabolic Activation: RAT LIVER, MICROSOMES, AROCLOR 1254, Method: STANDARD PLATE
  mutagenic call: active; positive
Strain/Indicator: TA98, Metabolic Activation: FERRET, LIVER, CYTOSOL, Method: STANDARD PLATE
  mutagenic call: inactive; negative
Strain/Indicator: TA98, Metabolic Activation: FERRET, LIVER, MICROSOMES, Method: STANDARD PLATE
  mutagenic call: active; positive
Strain/Indicator: TA98, Metabolic Activation: HAMSTER, LIVER, CYTOSOL, Method: STANDARD PLATE
  mutagenic call: inactive; negative
Strain/Indicator: TA98, Metabolic Activation: HAMSTER, LIVER, MICROSOMES, Method: STANDARD PLATE
  mutagenic call: active; positive
Strain/Indicator: TA98, Metabolic Activation: HUMAN, LIVER, CYTOSOL, Method: STANDARD PLATE
  mutagenic call: active; positive
Strain/Indicator: TA98, Metabolic Activation: HUMAN, RED BLOOD CELL, CYTOSOL, Method: PREINCUBATION
  mutagenic call: active; positive
Strain/Indicator: TA98, Metabolic Activation: NONE, Method: SPIRAL ASSAY
  mutagenic call: inactive; negative
Strain/Indicator: TA98, Metabolic Activation: PIG, LIVER, CYTOSOL, Method: STANDARD PLATE
  mutagenic call: inactive; negative
Strain/Indicator: TA98, Metabolic Activation: PIG, LIVER, MICROSOMES, Method: STANDARD PLATE
  mutagenic call: active; positive
Strain/Indicator: TA98, Metabolic Activation: RAT LIVER, CYTOSOL, AROCLOR 1254, Method: STANDARD PLATE
  mutagenic call: active; positive
Strain/Indicator: TA98, Metabolic Activation: RAT LIVER, MICROSOMES, AROCLOR 1254, Method: STANDARD PLATE
  mutagenic call: active; positive
Strain/Indicator: TA98, Metabolic Activation: RAT, LIVER, CYTOSOL, Method: STANDARD PLATE
  mutagenic call: inactive; negative
Strain/Indicator: TA98, Metabolic Activation: RAT, LIVER, MICROSOMES, Method: STANDARD PLATE
  mutagenic call: active; positive
Strain/Indicator: TA98, Metabolic Activation: RAT, LIVER, S-9, AROCLOR 1254 (0.5, 1, 2 OR 4%), Method: STANDARD PLATE
  mutagenic call: active; positive
Strain/Indicator: TA98, Metabolic Activation: RAT, LIVER, S-9, AROCLOR 1254, Method: SPIRAL ASSAY
  mutagenic call: active; positive
Strain/Indicator: TA98, Metabolic Activation: RAT, LIVER, S-9, AROCLOR 1254 OR PHENOBARBITOL, Method: STANDARD PLATE
  mutagenic call: active; positive
Strain/Indicator: TA98, Metabolic Activation: RAT, LIVER, S-9, PHENOBARBITAL, Method: STANDARD PLATE
  mutagenic call: active; positive
Strain/Indicator: TA100, Metabolic Activation: MOUSE, LIVER, MICROSOMES, BENZO[E]PYRENE AND TCDD, Method: STANDARD PLATE
  mutagenic call: active; positive
Strain/Indicator: TA100, Metabolic Activation: NONE, Method: SPIRAL ASSAY
  mutagenic call: inactive; negative
Strain/Indicator: TA100, Metabolic Activation: RAT, LIVER, PARENCHYMAL CELLS (FRESHLY ISOLATED OR STORED FOR 1 D OR CRYOPRESERVED), Method: PREINCUBATION
  mutagenic call: active; positive
Strain/Indicator: TA100, Metabolic Activation: RAT, LIVER, S-9, AROCLOR 1254 (2%), Method: STANDARD PLATE
  mutagenic call: active; positive
Strain/Indicator: TA100, Metabolic Activation: RAT, LIVER, S-9, AROCLOR 1254, Method: SPIRAL ASSAY
  mutagenic call: active; positive
Strain/Indicator: TA100, Metabolic Activation: RAT, LIVER, S-9, AROCLOR 1254, Method: STANDARD PLATE
  mutagenic call: active; positive
